Earlier results in patent publication US12367980B2, “Methods for predicting treatment response in cancers” (Cancer Research Technology Limited, priority 2020, dated 2025).
Read-outs that look alike come from different tables or passages of the source.

Tested on: ovarian cancer patients
Conditions: for response rate to Doxorubicin monotherapy: expected rate from clinical trials

SMILES: COc1cccc2c1C(=O)c1c(O)c3c(c(O)c1C2=O)C[C@@](O)(C(=O)CO)C[C@@H]3O[C@H]1C[C@H](N)[C@H](O)[C@H](C)O1 [Doxorubicin, doxorubicin]
- response rate to Doxorubicin monotherapy (patients resistant to platinum chemotherapy): 18%
- response rate to doxorubicin (platinum resistant ovarian cancer patients): 18%
- response rate to doxorubicin (platinum sensitive ovarian cancer patients): 52%
- response rate to Doxorubicin monotherapy (platinum sensitive patients (Gordon et al., 2001)): 28%
